Source: patent publication US8980846B2, “Composition containing styraxlignolide A or the aglycone thereof as an active ingredient for preventing or treating asthma” (Korea Research Institute of Bioscience and Biotechnology, priority 2010, dated 2015)
Like-named read-outs stand apart in the source and are kept apart here.

Tests used:
[1] = tested on: ovalbumin-specific IgE; test: IgE levels in serum and bronchoalveolar lavage fluid (ELISA); type: in vivo, Balb/c female mice; details: asthma-induced mice
Procedure: (§1) To prepare bronchial asthma-induced experimental animals, six-week-old Balb/c female mice of mean weight about 20 g were used. After one week of adaptation, individuals which had no observed abnormality on a basic physical examination were targeted. 200 μL of phosphate buffered saline (PBS)(pH 7.4) in which 2 mg of aluminum hydroxide (A8222, Sigma, St. Louis, Mo.) and 20 μg of ovalbumin (A5503, Sigma, St. Louis, Mo.) were suspended was injected into the peritoneal cavity at two-week intervals to result in sensitization. On days 28 to 30 after the first intraperitoneal administration of ovalbumin, inhalation challenge was performed for 30 min with 1% ovalbumin using an ultrasonic atomizer. 24 hours after the last antigen administration, airway hyperresponsiveness was measured. After 24 hours, a lethal dose of pentobarbital (Entobar®, Hanlim Pharm Co., Ltd.) was administered, body weight measurement and bronchotomy were performed, and bronchoalveolar lavage was performed with a total 1.2 mL of physiological saline, and then, samples were collected. […] Eight white mice were used for each group. Experimental groups for homoegonol were a group (hE7.5) in which animals were orally administered with 7.5 mg/kg homoegonol 1 hour prior to ovalbumin inhalation, a group (hE15) in which animals were orally administered with 15 mg/kg homoegonol 1 hour prior to ovalbumin inhalation, and a group (hE30) in which animals were orally administered with 30 mg/kg homoegonol 1 hour prior to ovalbumin inhalation, and five white mice were used for each group.
To measure serum and bronchoalveolar lavage fluid ovalbumin-specific IgE levels caused by administration of styraxlignolide A, an immunoenzyme technique was used. 20 μg/mL of ovalbumin was dissolved in a 0.1 M NAHCO3 buffer (pH 8.3), and was placed into a 96-well flat bottom ELISA plate to be coated at 4° C. overnight. Non-specific binding was blocked with PBS containing 1% bovine serum albumin, and a serum sample was diluted 1:400 and was allowed to react at room temperature for 2 hours. Then, the plate was washed well, and anti-mouse IgE monoclonal antibody was diluted 1:300 and was allowed to react for 2 hours. Then, HRP-conjugated goat anti-rat IgG polyclonal antibody which was coupled to peroxidase was diluted 1:4000 and was allowed to react at room temperature for 1 hour, and then, was washed. For color development, 3,3′,5,5′-tetramethylbezidine substrate was allowed to react, and the spectroscopic absorbance was measured at 650 nm.
To measure IgE levels which are correlated with severity of asthma to examine the effect of homoegonol on asthma, IgE levels in serum and bronchoalveolar lavage fluid were measured according to the method in <Experimental Example 4>.

[2] = tested on: inflammatory cells in bronchoalveolar lavage fluid; test: Inflammatory cell counts in bronchoalveolar lavage fluid (Diff-Quick staining); type: in vivo, Balb/c female mice; details: asthma-induced mice
Procedure: as §1
Bronchoalveolar lavage fluid was collected from individuals of each experimental group in <Example 2> and right after the collection, fluid was stained with trypan blue. The number of total cells except dead cells was calculated using a hemocytometer. Then, Diff-Quick staining (Sysmex, Swizerland) was performed after smear preparation with Cytospin II, and eosinophils and other inflammatory cells were differentially counted.
To examine the effect of homoegonol on asthma, variation in the numbers of asthma-related inflammatory cells was measured according to the method in <Experimental Example 3>.

[3] = tested on: inflammatory cells in bronchoalveolar lavage fluid; test: as above; type: in vivo, Balb/c female mice; details: asthma-induced mice, styraxlignolide A study
[4] = tested on: TGF-β1; test: TGF-β1 in bronchoalveolar lavage fluid; type: in vivo, Balb/c female mice; details: asthma-induced mice, homoegonol study; 30 mg/kg PO
Procedure: as §1
(§2) To examine the effect of homoegonol on airway remodeling, generation of TGF-β1 and IL-17 in bronchoalveolar lavage fluid was measured.

[5] = tested on: IL-17; test: IL-17 in bronchoalveolar lavage fluid; type: in vivo, Balb/c female mice; details: asthma-induced mice, homoegonol study; 30 mg/kg PO
Procedure: as §1, §2

[6] = tested on: airway hyperresponsiveness; test: Airway hyperresponsiveness, Penh by one chamber plethysmography after methacholine inhalation; type: in vivo, Balb/c female mice; details: asthma-induced mice; for Penh values: homoegonol study, 30 mg/kg PO
Procedure: as §1, with “Experimental groups for homoegonol were a group (hE7.5) in which animals were orally administered with 7.5 mg/kg homoegonol 1 hour prior to ovalbumin inhalation, a group (hE15) in which animals were orally administered with 15 mg/kg homoegonol 1 hour prior to ovalbumin inhalation, and a group (hE30) in which animals were orally administered with 30 mg/kg homoegonol 1 hour prior to ovalbumin inhalation, and five white mice were used for each group.” left out
The effect of styraxlignolide A on airway hyperresponsiveness caused by asthma occurrence was examined by measuring airway resistance with one chamber plethysmography (All medicus, Seoul, Republic of Korea) and degree of airway resistance was assessed by measuring Penh (enhanced pause) values. The baseline value was measured under a normal respiratory condition, and then, PBS was inhaled using an ultrasonic atomizer for 3 min, and Penh values were measured over 3 min. […] Louis, Mo.) which is used in general methods for diagnosis of bronchial asthma were inhaled and Penh values were measured. Penh value is shown in the following Equation 1, and the resulting Penh value was expressed as a percent increase in Penh after inhalation of each concentration of methacholine. The baseline Penh (saline challenge) was expressed as 100%.
Te: expiratory time (sec), the time from inspiration to the next inspiration
RT: relaxation time, the elapsed time between the beginning of the expiration and the moment when the remaining 30% of the tidal volume has been reached during expiration
PEF: Peak expiration flow
PIF: Peak inspiration flow
To examine the effect of homoegonol on airway hyperresponsiveness caused by asthma occurrence, Penh value was measured according to the method in <Experimental Example 2>.

[7] = tested on: goblet cells; test: Ratio of goblet cells to bronchial epithelial cells (PAS staining); type: in vivo, Balb/c female mice; details: asthma-induced mice
Procedure: as §1
Lungs removed from each individual were subjected to conventional formalin fixation and paraffin embedding, and permanent section slides of 4 μm thickness were prepared, and periodic acid Schiff (PAS) staining was performed to determine goblet cells. Proliferation of goblet cells was assessed by measuring the ratio of goblet cells to bronchial epithelial cells.
In accordance with the method in <Experimental Example 7-2>, the ratio of goblet cells which were determined by periodic acid-Schiff staining to bronchial epithelial cells were measured to assess proliferation of goblet cells.

[8] = tested on: alanine aminotransferase (ALT) and aspartate aminotransferase (AST) in serum; type: in vivo
Procedure: as §1
To examine liver toxicity of styraxlignolide A, a commercially available ELISA kit (BECKMAN Coulter, Inc., Fullerton, Calif., USA) was used to measure alanine aminotransferase (ALT) and aspartate aminotransferase (AST) in serum.

[9] = Body weight in asthma-induced mice; type: in vivo, Balb/c female mice
Procedure: as §1
(§3) To determine an effect of styraxlignolide A on reduction in body weight in asthma-induced mice, body weight of each mouse prepared in Example 2 was measured. For statistical analyses for all measurements, means and standard errors (mean±S.E.) according to a number of variables were calculated, and comparison between each group was analyzed by performing a Mann-whitney U test using SPSS 10.0. Statically significance was accepted at p<0.05.
as §3, with “homoegonol” for “styraxlignolide A”

[10] = tested on: inflammatory cells in the airway mucosa; test: Inflammatory cell infiltration in airway mucosa, inflammatory index (H&E staining); type: in vivo, Balb/c female mice; details: asthma-induced mice, styraxlignolide A study; 30 mg/kg PO 1 hour prior to ovalbumin inhalation; scale 0-4
[11] = tested on: reactive oxygen species; test: Reactive oxygen species generation in bronchoalveolar lavage fluid (2,7-dichlorofluorescein diacetate); type: in vivo, Balb/c female mice; design: dose or concentration left out as unconfirmed; details: asthma-induced mice, styraxlignolide A study, 1 hour prior to ovalbumin inhalation
Procedure: To prepare bronchial asthma-induced experimental animals, six-week-old Balb/c female mice of mean weight about 20 g were used. After one week of adaptation, individuals which had no observed abnormality on a basic physical examination were targeted. 200 μL of phosphate buffered saline (PBS)(pH 7.4) in which 2 mg of aluminum hydroxide (A8222, Sigma, St. Louis, Mo.) and 20 μg of ovalbumin (A5503, Sigma, St. Louis, Mo.) were suspended was injected into the peritoneal cavity at two-week intervals to result in sensitization. On days 28 to 30 after the first intraperitoneal administration of ovalbumin, inhalation challenge was performed for 30 min with 1% ovalbumin using an ultrasonic atomizer. 24 hours after the last antigen administration, airway hyperresponsiveness was measured. […]
To measure the amount of generated reactive oxygen species caused by administration of styraxlignolide A, some bronchoalveolar lavage fluid of each individual in <Example 2> was washed with PBS, and 10 μM 2,7-dichlorofluorescein diacetate (35845, Sigma, St. Louis, Mo.) was added thereto and bronchoalveolar lavage fluid was allowed to stand still in a room temperature dark room for 10 min, and the amount of generated reactive oxygen species was measured by a spectrofluorometer (Ex=480 nm, Em=522 nm).

[12] = tested on: fibrosis in subsegmental bronchi; test: Fibrosis in subsegmental bronchi (Masson's trichrome staining); type: in vivo, Balb/c female mice; details: asthma-induced mice, styraxlignolide A study; 1 hour prior to ovalbumin inhalation
Procedure: as §1

[13] = homoegonol study, 30 mg/kg PO, bronchoalveolar lavage fluid
[14] = homoegonol study, 30 mg/kg PO, bronchoalveolar lavage fluid, 30 mg/kg
[15] = styraxlignolide A study, 30 mg/kg PO 1 hour prior to ovalbumin inhalation
[16] = asthma-induced mice, styraxlignolide A study, 30 mg/mL PO 1 hour prior to ovalbumin inhalation

With `CC(C)(O)c1ccccc1CC[C@@H](SCC1(CC(=O)O)CC1)c1cccc(/C=C/c2ccc3ccc(Cl)cc3n2)c1` [Monte, montelukast, reference compound] the “Total IgE level in bronchoalveolar lavage fluid” value [1, 13] was 104.7447 ± 9.7295 ng/mL, the “Total serum IgE level” value ([1]; homoegonol study, 30 mg/kg PO, serum, Table 2) was 16.22 ± 2.6329 µg/mL and the “Number of cells, Other inflammatory cells” value [2, 13] was 48.84 ± 3.7377 ×10^3 cells/mouse. The “Number of cells, Eosinophils” value [2, 14] was 19.12±9.17 ×10^3 cells/mouse, the “Number of cells, Total inflammatory cells” value [2, 14] was 67.96±15.0532 ×10^3 cells/mouse and the “numbers of total inflammatory cells in bronchoalveolar lavage fluid” value [2, 15] was 193.29±19.99. The “numbers of eosinophils in bronchoalveolar lavage fluid” value ([3]; 30 mg/kg PO 1 hour prior to ovalbumin inhalation) was 60.67±6.58, the “TGF-β1 concentrations in bronchoalveolar lavage fluid” value [4] was 215.9375 ± 13.4334 pg/mL and the “IL-17 concentrations in bronchoalveolar lavage fluid” value [5] was 15.8409 ± 2.5686 pg/mL. The Penh values ([6]; methacholine 0 mg/ml) was 0.6071 ± 0.0618, the Penh values ([6]; methacholine 12.5 mg/ml) was 1.2979 ± 0.1537 and the Penh values ([6]; methacholine 25 mg/ml) was 1.4748 ± 0.1639. The Penh values ([6]; methacholine 50 mg/ml) was 2.3069 ± 0.4225, the “Goblet cells %/bronchial epithelial cell unit” value ([7]; homoegonol study, 30 mg/kg PO, 30 mg/kg) was 34.6476±11.5492% and the “serum ALT” value ([8]; mouse, in vivo, po, 30 mg/kg) was 122.50±14.94 IU/L. For the same molecule, the “serum AST” value ([8]; mouse, in vivo, po, 30 mg/kg) was 205.00±27.17 IU/L, the body weight ([9]; homoegonol study, 30 mg/kg PO 1 hour prior to ovalbumin inhalation) was 21.08 ± 0.57 g and the body weight [9, 15] was 21.04 ± 0.30 g.
In the case of `COc1ccc(-c2cc3cc(CCCO[C@@H]4OC(CO[C@@H]5OC[C@@H](O)C(O)C5O)[C@@H](O)C(O)C4O)cc(OC)c3o2)cc1OC` (stereo partly drawn) [styraxlignolide A], the peribronchiolar inflammatory index [10] is reported as 1.17±0.2, the “Ovalbumin-specific IgE level in bronchoalveolar lavage fluid” value ([1]; styraxlignolide A study, 1 hour prior to ovalbumin inhalation, bronchoalveolar lavage fluid) is reported as 15.4 ± 2.18 ng/mL and the “serum ovalbumin-specific IgE level” value ([1]; styraxlignolide A study, 1 hour prior to ovalbumin inhalation, serum, difference to asthma-induced group not significant) is reported as 382 ± 60.60 ng/mL. For the same molecule, the “numbers of eosinophils in bronchoalveolar lavage fluid” value ([3]; 30 mg/mL PO 1 hour prior to ovalbumin inhalation) was 20.77±2.34, the “numbers of total inflammatory cells in bronchoalveolar lavage fluid” value ([3]; 1 hour prior to ovalbumin inhalation) was 147.83±12.61 and the “Penh (enhanced pause) values compared to the comparative groups” value ([6]; styraxlignolide A study, 30 mg/mL PO 1 hour prior to ovalbumin inhalation, methacholine 12.5, 25, or 50 mg/mL) was “reduced Penh values compared to the comparative groups”. For the same molecule, the “generated amount of reactive oxygen species, reduction compared to the asthma-induced group” value [11] was 27.90%, the “ratio of goblet cells to bronchiolar epithelial cells” value ([7]; styraxlignolide A study, 1 hour prior to ovalbumin inhalation) was 29.52±8.02% and the “area of a fibrosis stained region per 100 μm of a basement membrane perimeter” value [12] was 495.69±98.62 μm^2. The “serum ALT” value [8, 16] was 168.67±15.56 IU/L, the “serum AST” value [8, 16] was 245.33±12.87 IU/L and the body weight ([9]; styraxlignolide A study, 30 mg/mL PO 1 hour prior to ovalbumin inhalation) was 21.04 ± 0.34 g.
